Experimental data published in paper PMC6659632, “Preferential phosphatidylinositol 5-phosphate binding contributes to a destabilization of the VHS domain structure of Tom1” (Scientific Reports, 2019).
Where two headings read alike, the source gives them in different places.

What was measured:
Assay type in all cases: binding
Tom1 VHS domain [1] = target: T1, Tom1 VHS domain (Homo sapiens, UniProt O60784); experiment: isothermal titration calorimetry
T1 construct: GST fusion from E. coli Rosetta, GST cut off with thrombin; monomer
Excerpt: isothermal titration calorimetry on Tom1 VHS domain

Tom1 VHS domain [2] = target: T1, Tom1 VHS domain; experiment: thermal denaturation by far-UV CD at […] nm; details: molar excess of lipid, nonreducing, 5 mM sodium citrate pH 7.3, 50 mM KF; free protein Tm 47.5 ± 0.1 °C
Tom1 VHS domain [3] = target: T1, Tom1 VHS domain; experiment: thermal denaturation by far-UV CD at […] nm; details: pre-incubated with excess lipid, nonreducing, 5 mM sodium citrate pH 7.3, 50 mM KF; free protein Tm 47.5 ± 0.1 °C

T1 sequence (O60784 1-140 limits assumed): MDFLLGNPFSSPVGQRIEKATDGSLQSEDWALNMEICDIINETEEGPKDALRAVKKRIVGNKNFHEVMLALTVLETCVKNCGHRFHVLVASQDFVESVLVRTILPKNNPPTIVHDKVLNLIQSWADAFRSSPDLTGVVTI

O=P(O)(O)O[C@@H]1[C@@H](O)[C@H](OP(=O)(O)O)[C@H](O)[C@H](O)[C@H]1O [Ins(1,5)P2]
Kd (Tom1 VHS domain [1]): 214 ± 67.2 µM

CCCCCCCC(=O)OC[C@H](COP(=O)([O-])OCC[N+](C)(C)C)OC(=O)CCCCCCC [PtdCho]
Tm (°C) / N to I/D (Tom1 VHS domain [2]): 43.0 ± 0.1 °C

CCCCCCCC(=O)OC[C@H](COP(=O)(O)O[C@H]1[C@H](O)[C@@H](OP(=O)(O)O)[C@H](O)[C@@H](O)[C@H]1O)OC(=O)CCCCCCC [PtdIns5P]
Tm (°C) / N to I/D (Tom1 VHS domain [2]): 37.6 ± 0.3 °C | Kd (Tom1 VHS domain [1]; high-affinity site of two-site fit, nonreducing, 20 mM HEPES pH 7.4, 150 mM KCl, 25 °C): 3.1 ± 0.6 µM

PtdIns
mid-transition temperature (Tom1 VHS domain [3]): 34 °C
